# Test results as given in patent US20040142819A1, “Compositions and methods for synergistic weed control” (priority 2003, published 2004).
# Tests used:
# [1] = system: TRFRE (white clover, approximate height 3 inches); test: Field plot weed control, visual % control, white clover; type: in vivo
# Experimental: (§1) In this evaluation, seedling weeds of rhizome johnsongrass and white clover were grown in a field plot until they reached a height of 3 feet (0.9 m) and 3 inches (8 cm) respectively. The plants were then sprayed with an aqueous solution or emulsification of the test compounds at various rates as indicated in Table II. The control % (on a visual basis) is shown in Table II for 7 and 16 days after treatment.
# (§2) Sethoxydim is formulated as a 1.5 lb ai/g (0.68 kg ai/g) emulsification.
# (§3) Imazapyr is formulated as a 4.0 lb ai/g (1.8 kg ai/g) aqueous solution.
# TRFRE is white clover with an approximate height of 3 inches (8 cm).
# [2] = system: Sorghum halepense (Johnsongrass); test: Greenhouse post-emergence weed control of seedling johnsongrass, visual % control, Colby expected response
# Experimental: In this evaluation, seedling johnsongrass was grown in 9-cm diameter styrofoam cups in a soil medium of a 1:1 mixture of top-soil from a Freestone fine sandy loam (fine-loamy, siliceous, thermic Aquic Paleudalf) and masonry sand. The temperature in the greenhouse was maintained at 31 ″5° C. for several weeks until the plants were approximately 5-inch (13 cm) leaf seedlings. Said plants were then sprayed with an aqueous solution of the test compounds at the rates indicated in Tables Ia and Ib as measured in lbs of herbicide per acre. Each treatment was replicated 4 times and the average control % (on a visual basis) is shown in Table Ia for 10 days after treatment and Table Ib for 20 days after treatment.
# The methods described by Colby in “Calculating Synergistic and Antagonistic Responses of Herbicide Combinations,” 15 Weeds 20-22 (1967), were used to calculate interactions of herbicide tank mixtures. The expected response for tank mixtures was calculated by taking the product of the recorded values from the herbicides applied alone and dividing by 100.
# [3] = system: SORHAZ (johnsongrass, approximate height 3 feet); test: Field plot weed control, visual % control, rhizome johnsongrass; type: in vivo
# Experimental: as §1, §2, §3
# SORHAZ is johnsongrass with an approximate height of 3 feet (0.9 m).
# [4] = Treatment 2: graminicide 0.20 lb/A (0.22 kg/ha), imidazolinone 0
# [5] = 10 Days After Treatment, Sethoxydim 0 lb/A, imidazolinone 0.008 lb/A (0.009 kg/ha)
# [6] = 10 Days After Treatment, Sethoxydim 0 lb/A, imidazolinone 0.016 lb/A (0.018 kg/ha)
# [7] = 10 Days After Treatment, Sethoxydim 0 lb/A, imidazolinone 0.032 lb/A (0.036 kg/ha)
# [8] = 20 Days After Treatment, Sethoxydim 0 lb/A, imidazolinone 0.008 lb/A (0.009 kg/ha)
# [9] = 20 Days After Treatment, Sethoxydim 0 lb/A, imidazolinone 0.016 lb/A (0.018 kg/ha)
# [10] = 20 Days After Treatment, Sethoxydim 0 lb/A, imidazolinone 0.032 lb/A (0.036 kg/ha)
# [11] = Treatment 3: graminicide 0, imidazolinone 0.008 lb/A (0.009 kg/ha)
smiles,measurement,setting,value
"CCCC(=NOCC)C1=C(O)CC(CC(C)SCC)CC1=O (stereo not shown) [Sethoxydim, 2-[1-(ethoxyimino)butyl]-5-[2-(ethylthio)propyl]-3-hydroxy-2-cyclohexen-1-one]",TRFRE 7 DAT Control (%),[1]; [4],0%
same,TRFRE 16 DAT Control (%),[1]; [4],0%
same,Actual Control (%),"[2]; 10 Days After Treatment, Sethoxydim 0.1 lb/A (0.1 kg/ha), no imidazolinone",20%
same,Actual Control (%),"[2]; 10 Days After Treatment, Sethoxydim 0.2 lb/A (0.2 kg/ha), no imidazolinone",87.5%
same,Actual Control (%),"[2]; 20 Days After Treatment, Sethoxydim 0.1 lb/A (0.1 kg/ha), no imidazolinone",30%
same,Actual Control (%),"[2]; 20 Days After Treatment, Sethoxydim 0.2 lb/A (0.2 kg/ha), no imidazolinone",95%
same,SORHAZ 7 DAT Control (%),[3]; [4],26.7%
same,SORHAZ 16 DAT Control (%),[3]; [4],38.3%
"COCc1cnc(C2=NC(C)(C(C)C)C(=O)N2)c(C(=O)O)c1 (stereo not shown) [imazamox, 2-[4,5-dihydro-4-methyl-4-(1-methylethyl)-5-oxo-1H-imidazol-2-yl]-5(methoxymethyl)-3-pyridinecarboxylic acid]",Actual Control (%),"[2]; 10 Days After Treatment, Sethoxydim 0 lb/A, imidazolinone 0.004 lb/A (0.004 kg/ha)",12.5%
same,Actual Control (%),[2]; [5],12.5%
same,Actual Control (%),[2]; [6],10%
same,Actual Control (%),[2]; [7],10%
same,Actual Control (%),"[2]; 20 Days After Treatment, Sethoxydim 0 lb/A, imidazolinone 0.004 lb/A (0.004 kg/ha)",30%
same,Actual Control (%),[2]; [8],40%
same,Actual Control (%),[2]; [9],40%
same,Actual Control (%),[2]; [10],50%
"CC(C)C1(C)N=C(c2ncccc2C(=O)O)NC1=O (stereo not shown) [imazapyr, (″)-2-[4,5-dihydro-4-methyl-4-(1-methylethyl)-5-oxo-1H-imidazol-2-yl]-3-pyridinecar-boxylic acid]",TRFRE 7 DAT Control (%),[1]; [11],0%
same,TRFRE 16 DAT Control (%),[1]; [11],0%
same,SORHAZ 7 DAT Control (%),[3]; [11],0%
same,SORHAZ 16 DAT Control (%),[3]; [11],0%
"CC(C)C1(C)N=C(c2nc3ccccc3cc2C(=O)O)NC1=O (stereo not shown) [imazaquin, 2-(4,5-dihydro-4-methyl-4-(1-methyl-ethyl)-5-oxo-1H-imidazol-2-yl]-3-quinolinecarboxylic acid]",Actual Control (%),[2]; [5],0%
same,Actual Control (%),[2]; [6],0%
same,Actual Control (%),[2]; [7],0%
same,Actual Control (%),"[2]; 10 Days After Treatment, Sethoxydim 0 lb/A, imidazolinone 0.063 lb/A (0.070 kg/ha)",0%
same,Actual Control (%),[2]; [8],0%
same,Actual Control (%),[2]; [9],2.5%
same,Actual Control (%),[2]; [10],3.8%
same,Actual Control (%),"[2]; 20 Days After Treatment, Sethoxydim 0 lb/A, imidazolinone 0.063 lb/A (0.070 kg/ha)",5%
